Laboratory results from the METLIN SMRT retention time set (Domingo-Almenara et al. 2019).

Assay: gradient 5% acetonitrile 3 min, to 50% in 2 min, to 85% in 15 min, held 3 min, 100 µL/min
Settings: column: Zorbax Extend-C18 2.1 x 50 mm; eluents: water / acetonitrile, 0.1% formic acid
In short: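 Pure standards were analyzed in mixtures of ~100 molecules using HPLC coupled to a quadrupole time-of-flight mass spectrometer, in both positive and negative ionization mode. Separation used a Zorbax Extend-C18 column (2.1 × 50 mm, 1.8 μm) at 100 μL/min, with water and acetonitrile each containing 0.1% formic acid. Dead and dwell volumes were 40 μL and 900 μL, and data were collected over 3 months. Retention time was read from computationally picked adduct peaks, each inspected manually.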

SMILES	RP-LC retention time [s]
CCCN(C)c1nccn2c(=O)n(CC(=O)Nc3ccc(F)cc3)nc12	806
CCCNC(=O)CCc1nc2ccccc2n(CC(=O)Nc2ccc(CC)cc2)c1=O	852
Cc1oc(C(C)C)nc1C(=O)Nc1ccc(Cl)cc1	1150
O=C1C(c2ccncc2)N(Cc2ccccc2)C(=O)CN1c1ccccc1 (configuration not stated)	684
Cc1ccc(-c2cn3cccnc3n2)cc1NC(=O)CCC1CCCCC1	789
COc1ccc(NC(=O)CSc2nc3c(cc2C#N)C(=O)CC(C)(C)C3)c(OC)c1	892
O=S(=O)(c1ccc(F)c(Cl)c1)N1CCC(OCc2noc(C3CCCO3)n2)CC1 (configuration not stated)	973
O=C(C1=Cc2ccccc2OC=C1)N1CCc2ccccc2C1	1090
COc1ccc(NC(=O)c2cc(C(F)(F)F)n(C)n2)c(OC)c1	998
Cc1ccc(NC(=O)Cn2c(=O)n(-c3ccccc3)c3ncccc32)cc1	840
O=C1CC(C(F)(F)F)c2c(c(C(=O)O)cn2-c2ccc(Cl)cc2)N1 (configuration not stated)	786
Cc1noc(C2CN(C(=O)Nc3cccc(C)c3C)CC23CCOCC3)n1 (configuration not stated)	715
CCn1ncc(C(=O)N2CC(n3cc(COc4ccc(F)cc4)nn3)C2)c1C	714
Cc1nc(Cn2cccc2C(=O)Nc2ccc(C)c(F)c2)no1	889
Cc1ccc(S(=O)(=O)C(F)(F)F)cc1N1C(=O)c2ccccc2C1=O	942
CCOc1ccc(CNC(=O)C2CCN(C(=O)C3Sc4ccccc4NC3=O)CC2)cc1 (configuration not stated)	743
Nc1nc(-c2ccccc2)c(C(=O)c2ccccc2)s1	706
CCc1ccc(NC(=O)C2CCN(S(=O)(=O)c3ccc4c(c3)NC(=O)C(CC)O4)CC2)cc1 (configuration not stated)	963

SMILES	RP-LC retention time [s]
COc1cc(OC)c(NC(=O)N2CCC(CN3CCCC(C)C3)CC2)cc1Cl (configuration not stated)	630
CCn1cc(CCNC(C)=O)c2cccnc21	561
COc1ccc(NC(=O)N2CCCC(Cn3cnc4cccnc43)C2)cc1Cl (configuration not stated)	692
CCc1noc(-c2cccnc2N2CCCN(Cc3cccc(C)c3)CC2)n1	690
CCc1ccc(NC(=O)N2CCC(n3cnnc3C3CC3)C2)cc1 (configuration not stated)	665
Cc1cc(C)n(-c2cc(NCCNC(=O)c3ccc(Br)o3)ncn2)n1	718
CCOc1ccc(NC(=O)c2sc(N3CCCC3=O)nc2CC)cc1	875
COc1ccc(Cl)cc1S(=O)(=O)N1CCC(n2cnnc2C)CC1	684
Cc1cccc(-c2nnc(-c3nc(NCCc4c(C)noc4C)c4ccccc4n3)o2)c1	956
COc1cc(OC)c(NC(=O)N2CCCC(C)(C(=O)NCc3ccccc3)C2)cc1Cl (configuration not stated)	897
CCOc1ccc(N2CC(c3nc(-c4ccncc4)no3)CC2=O)cc1 (configuration not stated)	736
O=C1NCCCn2cc(S(=O)(=O)Nc3ccccc3F)cc21	633
CCC1CCCCN1C(=O)c1cnc2nc(C)ccc2c1Nc1cc(C)cc(C)c1 (configuration not stated)	722
CNC(=O)c1ccc(-c2nc3cc(NS(=O)(=O)c4ccc(Cl)s4)ccc3n2C)cc1	660
COc1ccc(C(=O)Nc2nc(-c3ccc4c(c3)NC(=O)C(C)O4)c(C)s2)cc1OC (configuration not stated)	867
O=C(C1CCN(c2nc3ccc(-c4ccc(F)cc4)nc3s2)CC1)N1CCCC1	944
CCOC(=O)CNC(=O)N1CCc2c([nH]c3ccc(OC)cc23)C1c1ccc(OC)cc1 (configuration not stated)	886

Now from value to compound:

RP-LC retention time [s]	SMILES
891	CCc1nn2c(CNC(=O)c3ccccn3)c(-c3ccccc3)nc2s1
865	O=C(CCC(=O)N1CC2CCCN2c2ccccc21)NCc1cccs1 (configuration not stated)
781	CCOC(=O)N1CCC2(CC1)N=C(c1ccc(Cl)cc1)CC(c1cccc(OC)c1O)N2 (configuration not stated)
788	O=C(NC1CC1)C1CCCN(c2nccn3nc(-c4ccccc4Cl)cc23)C1 (configuration not stated)
720	CCN(CC)CCn1c(=O)c(Cc2ccc(OC)cc2)nc2ccccc21
605	CCc1nc2cc(N3CCC(C(=O)NCCN4CCCCC4C)CC3)cnc2nc1CC (configuration not stated)
1090	O=S(=O)(c1ccccc1Br)N1CCc2nc(-c3ccccc3)ncc2C1
789	COc1ccc(N2C=C(C(=O)N3CCOCC3)S(=O)(=O)c3ccccc32)cc1Cl
609	CC(C)NC(=O)CN1CCN(c2ncc(C(=O)Nc3ccccc3)c(N)n2)CC1
748	COc1cc(NC(=O)Cn2c(C)cc(-c3nnc(C)o3)c2C)cc(OC)c1
1290	Cn1nc(-c2nnc(-c3ccc(F)cc3)o2)c2c1CCN(S(=O)(=O)c1ccc3c(c1)CCC3)C2
868	Cc1nc(-c2csc(S(=O)(=O)N3CCC(C(=O)Nc4ccc5c(c4)OCCO5)CC3)c2)no1
1020	Oc1c(Cl)cc(Cl)c2cccnc12
1110	Cc1cccc(NC(=O)Nc2nccn(-c3cccc(Cl)c3C)c2=O)c1
918	Cc1cc(C)n(-c2ccc(C(=O)NC3CCCCC3)cn2)n1
553	O=C(NCCN1CCCC1)c1cccc(N2CCNC(c3ccccc3)C2)n1 (configuration not stated)

RP-LC retention time [s]	SMILES
690	COC(=O)c1ccc(NC(=O)Cn2cnc3nc(N4CCCC4)ncc3c2=O)cc1
970	CCc1nc(-c2csc(S(=O)(=O)N3CCC(C(=O)NCc4cccc(C)c4)CC3)c2)no1
812	CC1(C(=O)NCc2ccc3c(c2)OCO3)CCN(C(=O)Nc2ccccc2C(F)(F)F)CC1
796	O=C(NCCc1ccccc1)Nc1ccccc1NC(=O)c1ccsc1
857	CC1(C(=O)NCc2ccc(F)cc2)CCCN(C(=O)NCCc2ccccc2)C1 (configuration not stated)
722	C1CCc2nc3c(nc2C1)CCCC3
602	Cc1nnsc1C(=O)NCC1(O)CCCC1
909	COc1ccc(C2(CNC(=O)C(=O)Nc3ccc(N4CCCC4=O)c(C)c3)CCCC2)cc1
602	O=C(NCCCN1CCCC1=O)C1CCN(c2ncnc3c2oc2ccccc23)CC1
792	Cc1nn2c(S(=O)(=O)N3CCCCC3)c(C)nc2s1
967	Cc1cc2nn(CC(=O)Nc3ccc(F)c(F)c3)c(=O)n2c(Nc2ccccc2)n1
691	Cc1cc(F)ccc1NC(=O)C1CCN(S(=O)(=O)c2c(C)[nH]c(C)c2C(=O)N2CCCC2)CC1
760	O=C(c1cccc(F)c1)N1CCN(C(=O)c2nsc3ccccc23)CC1
605	O=C(CN1CC(c2nc(-c3cccs3)no2)C1)N1CCc2ccccc21
1100	Cc1ccc(C(=O)Nc2cccc(OCc3nnc(-c4ccc(Cl)cc4)o3)c2)s1
620	CCOc1ccccc1CN1C[C@@H](CO)[C@H](c2ccncc2)C1
